Measurements: US20060100290A1, “Treatment of allergic rhinitis and asthma” (priority 2003, published 2006)

Test system: allergic rhinitis and asthma
Test: Treatment of human patients with allergic rhinitis and/or asthma with daily atomoxetine (case reports, Examples 1-4)
Assay type: in vivo, humans
Method: A person with a 24 year history of severe allergic rhinitis, immunotherapy failure, and a 10 year history of moderate persistent asthma was given a 100 mg daily dose of atomoxetine. […]
Here, as is known in the art, FEV1 percent is the ratio of FEV1 to the predicted FEV1, which is obtained from standardized tables based on age, weight, height, and sex; FEV1 is the volume of air that is forcefully exhaled from the lungs in one second.

[1] = Example 3: person, allergic rhinitis, 80 mg daily dose

Structure (SMILES): CNCC[C@@H](Oc1ccccc1C)c1ccccc1.Cl [atomoxetine, (R)-(−)-N-methyl-3-(2-methylphenoxy)-3-phenylpropylamine]
- symptom status on atomoxetine mono therapy (Example 1: person, 60 mg daily dose, monitored during the following year): remained symptom free during the entire period of monitoring
- time until able to wean all traditional allergic rhinitis and asthma treatments (Example 1: person, allergic rhinitis and moderate persistent asthma, 60 mg daily dose): three
- symptom status on atomoxetine mono therapy (Example 2: person, 100 mg daily dose, monitored during the following 10 months): remained symptom free during the entire period of monitoring
- time until able to wean all traditional allergic rhinitis and asthma treatments (Example 2: person, severe allergic rhinitis and moderate persistent asthma, 100 mg daily dose): ≤ 10 days
- time remained symptom free with atomoxetine mono therapy [1]: at least nine
- time until able to wean all traditional allergic rhinitis treatments [1]: ≤ 7 days
- time remained symptom free with atomoxetine mono therapy (Example 4: person, 80 mg daily dose): at least 7 months
- FEV1 percent (ratio of FEV1 to predicted FEV1), pulmonary function test (Example 4: person, 80 mg daily dose, after 6 weeks of atomoxetine mono therapy, 68% on traditional treatments before): 93%
- time until able to wean all traditional allergic rhinitis and asthma treatments (Example 4: person, allergic rhinitis and moderate persistent asthma, 80 mg daily dose): ≤ 10 days
